Assay results from patent US20230321185A1, “METHOD FOR TREATMENT OF TYPE-1 DIABETES IN A SUBJECT IN NEED THEREOF” (priority 2021, published 2023).

Assays:
Type in all cases: in vivo, Balb/c mice
[1] = Fasting blood sugar (FBS) in normal and STZ-induced type 1 diabetic mice; conditions: STZ-induced type 1 diabetic mice, IP; for mean percentage of FBS changes decreased by: end of treatment, value is a decrease (untreated D4 increased by 49.23%)
Procedure: In a 14-day period, diabetes type 1 was induced in a group of mice via injecting multiple low doses of Streptozotocin (STZ). Also, the other group of mice received an equal volume of citrate buffer (pH 4.5) intraperitoneally (I.P.) in the same procedure that was called the normal group.
(§1) Each of the normal (N) (n=20) and diabetic (D) (n=20) groups was divided into four subgroups. The first group (N1 and D1) (n=5) received 6.7 mg/kg intraperitoneally growth hormone for two weeks. The second group (N2 and D2) (n=5) administrated 0.185 mg/kg intraperitoneally magainin II for approximately four weeks. The third group (N3 and D3) (n=5) first received 0.185 mg/kg of magainin II for four weeks, and then 6.7 mg/kg of growth hormone for two weeks. Finally, the fourth group (N4 and D4) (n=5) received only an equal volume of physiological saline instead of these treatments.
(§2) FBS measurements before the treatment and weekly during the treatment, and glucose tolerance test (GTT) at the end of the treatment were performed. The pancreatic tissue was quickly removed and placed in a cold phosphate buffer saline (PBS). Some of the extracted tissues for additional tests were stored in a freezer (−80° C.) and some were immersed in 4% paraformaldehyde (PFA) for immunohistochemical staining.
Diabetes type 1 was induced in a group of mice via injecting multiple low doses of Streptozotocin (STZ) (40 mg/kg, intraperitoneal) for five consecutive days. The STZ dissolved in the 50 mM sodium citrate buffer (pH 4.5) to a final concentration of 4 mg/ml, immediately prior to injection. Nine days after the last STZ injection, all the mice have their FBS (fasting blood sugar) over 200 mg/dl were considered as type 1 diabetic mice group.
(§3) FBS levels were measured after fasting mice for 6 h (7:00-13:00) with an Accu-Chek glucometer via tail vein. Also in the glucose tolerance test, six hours after the mice were deprived of food (7:00-13:00), the first FBS was measured and after that mouse administrated glucose (2 g/kg bodyweight, intraperitoneally), and then at the indicated time points post-injection, blood glucose levels were measured.
The fasting blood sugars of mice in all diabetic and normal groups were measured before the treatment and weekly during the treatments. At the end of the treatments, the percentage of FBS changes were calculated. The average percentage of FBS alterations in each group was then determined. Finally, the average result of each group was compared and analyzed with other groups by prism software.

[2] = Glucose tolerance test (GTT) at the end of the treatment; conditions: for effect on blood glucose levels both in FBS and GTT: diabetic mice
Procedure: as §1, §2, §3

P-ERK = assay: Western blot of pancreatic P-ERK; conditions: normal mice, vs N4 (saline)
Procedure: as §1
(§4) Proteins were extracted in RIPA buffer which are containing Tris-HCl buffer (100 mM, pH 7.5), ethylene diamine tetra acetic acid (EDTA, 10 mM), sodium pyrophosphate (10 mM), sodium fluoride (0.1 mM), sodium orthovanadate (10 mM), phenylmethylsulphonyl fluoride (PMSF, 2 mM), and aprotinin (10 mg/ml). The pancreas extracts were vortexed for 30 min frequently at 4° C. The homogenates were centrifuged at 12,000 rpm for 20 min at 4° C. The supernatants were stored in an −80° C. freezer. Total protein concentration was determined by the Lowry method. […]
(§5) All values are depicted as mean±SEM and considered significant if p<0.05. […] Data were analyzed using GraphPad Prism software and the results of groups were compared with the ANOVA test.

P-STAT5 = assay: Western blot of pancreatic P-STAT5; conditions: for P-STAT5 expression increase in comparison with control group: diabetic mice, vs D4 (saline); for P-STAT5 expression increase compared with control group: normal mice, vs N4 (saline)
Procedure: as §1
(§6) Proteins were extracted in RIPA buffer which are containing Tris-HCl buffer (100 mM, pH 7.5), ethylene diamine tetra acetic acid (EDTA, 10 mM), sodium pyrophosphate (10 mM), sodium fluoride (0.1 mM), sodium orthovanadate (10 mM), phenylmethylsulphonyl fluoride (PMSF, 2 mM), and aprotinin (10 mg/ml). The pancreas extracts were vortexed for 30 min frequently at 4° C. The homogenates were centrifuged at 12,000 rpm for 20 min at 4° C. The supernatants were stored in an −80° C. freezer. Total protein concentration was determined by the Lowry method.
(§7) De-freeze sample was added to loading buffer and dithiothreitol 0.5 M solution, then heated for 5 min at 95° C. Sodium dodecyl sulfate-polyacrylamide gel electrophoresis (SDS PAGE) and then protein transfer to a polyvinylidene difluoride (PVDF) blotting membrane was performed. […] Finally, a result image was developed based on Western Blot-ECL ([…]) Development Protocol.
(§8) All values are depicted as mean±SEM and considered significant if p<0.05. The arbitrary optical density unit was acquired using ImageJ software (version 1.46). Data were analyzed using GraphPad Prism software and the results of groups were compared with the ANOVA test.

P-S6 = assay: Western blot of pancreatic P-S6 (mTOR pathway activity)
Procedure: as §1, §6, §7, §8
The activity of mTOR pathway was appraised by evaluating the changes in ribosomal P-S6 expression. As a downstream factor of the mTOR pathway, results of pancreatic P-S6 expression in all treated diabetic and normal mice were compared with their control groups. Therefore, changes in P-S6 expression proportionally reflects the activity of mTOR pathway. […] Consequently, GH pulsatile secretion and temporally treatment period in this study via transient increase in mTOR activity can induce and enhance anabolic growth during the treatment, such as cell growth, ribosomal biogenesis, and protein synthesis.

PAX4 = assay: Western blot of pancreatic PAX4; conditions: normal mice, vs normal control group
Procedure: as §1, §4, §5

[3] = test system: insulin+ and glucagon+ cells of pancreatic islets; assay: Immunohistochemistry of pancreas sections, insulin+ and glucagon+ cells; conditions: type 1 diabetic mice
Procedure: as §1
Fixed tissue in 4% paraformaldehyde for 30 min at 4° C., embedded in paraffin and applied to slides. The prepared 6-μm sections were assayed as described previously. The following primary antibodies were used in these assays: rabbit anti-insulin antibody (ab63820) (1/500), mouse anti-glucagon antibody sc-514592 (1/500), mouse anti-vimentin antibody sc-6260 (1/500), rabbit recombinant anti-Ki67 (ab197547) (1/500), rat anti-CD3 antibody (ab11089) (1/500), mouse anti-CD19 antibody (sc-373897) (1/500). […]
as §5

Substance	approximate improvement rate of fasting blood sugar in comparison with untreated control diabetic group [1] [%]	mean percentage of FBS changes decreased by [1] [%]	effect on blood glucose levels both in FBS and GTT [2]	blood sugar course in GTT ([2]; normal mice, glucose 2 g/kg IP)	P-ERK expression increase in comparison with control group (P-ERK)	P-STAT5 expression increase in comparison with control group (P-STAT5)	P-STAT5 expression increase compared with control group (P-STAT5)	P-S6 expression increase in comparison with control group (P-S6; diabetic mice, vs D4 (saline))	P-S6 expression increase in comparison with control group (P-S6; normal mice, vs N4 (saline))	Pax4 expression increase in comparison with control group (PAX4) [%]	beta cell regeneration [3]
GH: Human Growth Hormone produced by EXIR under the brand name Exitropin 4 IU (1.3 mg) (Somatropin), lyophilized powder	~57.43	8.2	less attenuating effect	higher than in other normal groups	no significant difference	not statistically significant	slight and non-significant increase	no significant difference	slight and not significant	~135	effective beta cell regeneration
GIGKFLHSAKKFGKAFVGEIMNS (listed as Xenopus laevis) [magainin, cationic, amphipathic, a-helical antimicrobial peptide with twenty-three amino acids, synthesized by Biomatik]	~97.13	47.9	greatest effect on reducing blood sugar		no significant difference	not statistically significant	slight and non-significant increase	no significant difference	slight and not significant	~125	effective beta cell regeneration
